Data on three compounds can be found in patent US20140243239A1, “MULTIPLEXED KINASE INHIBITOR BEADS AND USES THEREOF” (University of North Carolina at Chapel Hill, priority 2011, published 2014).

The test system of one assay is BT474 cells. Put plainly: BT474 luminescent cell viability assay. Format: cell-based. Conditions: 50 nM lapatinib, 0-72 hours.
Another assay has as its system AKT. Put plainly: AKT phosphorylation in pancreatic cancer PDX tumors. It counts as in vivo, mice. Conditions: daily treatment, harvested 4-6 h after last dose. The procedure: Kinome reprogramming in PDX model of pancreatic cancer after BKM120 treatment: The kinome response of a pancreatic cancer PDX to BKM120 treatment was evaluated using MIB/MS. […] Kinome reprogramming in PDX models: De-identified tumors from patients are grafted into immunecompromised mice and passaged. All tumors are characterized using microarray and mutational analysis. Hematoxylin & eosin staining of a patient tumor at the time of operation and after several passages over a 1.5 yr period showing similar glandular architecture with surrounding stroma. Variable levels of pERK1/2 and pAKT(S473) was seen across pancreatic cancer PDX. PDX P100422 with moderate levels of pAKT was selected for BKM120 treatment. pAKT expression in BKM120 versus vehicle treated PDX tumor. Mice were treated daily with either vehicle control (n=3) or BKM120 (n=3) and tumors were harvested 4-6 h after the last dose. PDX tumors were treated daily for 28 days. […] The 3 vehicle control and 3 BKM120 treated tumors showing inhibition of pAKT were analyzed using MIB/MS. Activation and repression of the kinome in response to PI3K inhibition in PDX P100422.

A further assay has as its system PDX P100422. The experiment in a line: Tumor growth of pancreatic cancer PDX P100422. Format: in vivo, mice. The text has this:
Kinome reprogramming in PDX models: De-identified tumors from patients are grafted into immunecompromised mice and passaged. All tumors are characterized using microarray and mutational analysis. Hematoxylin & eosin staining of a patient tumor at the time of operation and after several passages over a 1.5 yr period showing similar glandular architecture with surrounding stroma. Variable levels of pERK1/2 and pAKT(S473) was seen across pancreatic cancer PDX. PDX P100422 with moderate levels of pAKT was selected for BKM120 treatment. pAKT expression in BKM120 versus vehicle treated PDX tumor. Mice were treated daily with either vehicle control (n=3) or BKM120 (n=3) and tumors were harvested 4-6 h after the last dose. PDX tumors were treated daily for 28 days. […] The 3 vehicle control and 3 BKM120 treated tumors showing inhibition of pAKT were analyzed using MIB/MS. Activation and repression of the kinome in response to PI3K inhibition in PDX P100422.

The subject of another assay is MEK. Conditions: Gilmartin et al. 2011; cited from earlier work.
The subject of a further assay is MEK-ERK pathway. Put plainly: Window trial in TNBC patients (LCCC 1122), MIB/MS of tumor biopsies. Format: in vivo, human. Conditions: 7-day post-treatment versus pre-treatment biopsy, preliminary. An excerpt:
Kinome reprogramming in TNBC patients treated with the MEK inhibitor GSK1120212 is being evaluated (LCCC 1122).

For the next assay, the system named is MEK1. Put plainly: MEK1 activation in HPAC pancreatic cancer cells. It counts as cell-based. The procedure:
Kinome reprogramming in pancreatic cancer—cell type and inhibitor specific. The kinome response to drug in 3 pancreatic cancer cell lines (HPAC, AsPC-1, HPAF-II) was also evaluated using 3 kinase inhibitors that are currently in Phase I/II clinical trials: BKM120 (Novartis), an oral pan-class 1 PI3K inhibitor, […] (Glaxo Smith-Kline), an ATP competitive PI3K/mTOR inhibitor, and GSK1120212, a reversible allosteric inhibitor of MEK1/2 (Glaxo Smith-Kline). The kinome response for GSK2126458 and GSK1120212 was compared using MIB/MS and RTK arrays to determine if kinome reprogramming was inhibitor-specific. […] Thus, kinome reprogramming is target-specific.

Description for BT474 cells: The different colors represent different time points of (50 nM) lapatinib treatment relative to DMSO control-treated cells. From light to dark, the time points are 4, 24, and 48 hrs of lapatinib treatment.

Consider `CS(=O)(=O)CCNCc1ccc(-c2ccc3ncnc(Nc4ccc(OCc5cccc(F)c5)c(Cl)c4)c3c2)o1` [lapatinib], for which, in the assay on BT474 cells, the “growth of BT474 cells” value is on record as “growth inhibition”.
Consider `Nc1cc(C(F)(F)F)c(-c2cc(N3CCOCC3)nc(N3CCOCC3)n2)cn1` [BKM120], for which the AKT phosphorylation entry with AKT was “inhibited AKT phosphorylation”. In the assay with PDX P100422 (small sample size), the “effectiveness in the PDX model” value is “not clearly effective”. Moreover, the “number of tumors showing tumor growth inhibition relative to controls” value in the assay on PDX P100422 (treated daily for 28 days) amounted to 4 tumors.
`CC(=O)Nc1cccc(-n2c(=O)n(C3CC3)c(=O)c3c(Nc4ccc(I)cc4F)n(C)c(=O)c(C)c32)c1` [GSK1120212]: the “fold lower affinity of MEK phosphorylated at the activation loop serines than nonphosphorylated MEK” value in the assay on MEK is recorded as 20 fold. Further, in the assay on MEK-ERK pathway, the “MEK-ERK pathway in patient tumors” value is reported as “effectively inhibited”; the “kinome reprogramming in patient tumors” value was “upregulation of MRCKG, FER and DDR1”. The MEK1 activation entry in the assay with MEK1 is listed as “inhibited MEK1 activation”.
